# From US9012497B2, “Cyclohexyl carbamate compounds as active anti-cellulite ingredients” (Symrise AG, priority 2010, dated 2015)
# Assays:
# 3T3 cells = experiment: ATP assay, inhibition of proliferation; type: cell-based; conditions: Mus musculus, NIH3T3, 48 h, non-cytotoxic dilutions, mean values of at least 2 independent tests
# Protocol: 3T3 cells (mouse […] fibroblasts) were seeded in 96-well plates. After 24 h cultivation at 37° C. and 5% CO2 in DMEM (Dulbecco's Modified Eagle Medium), cells were treated with test substances for another 48 h. […] ATP content in the cells is measured by
# The inhibition of proliferation was calculated by:
# [formula] wherein RLU test substance=relative luminescent units of the wells with test substance and with cells RLU control=relative luminescent units of the wells without test substance, but with cells RLU control without cells=relative luminescent units of the wells without test substance and without cells
# The IC50 is calculated from the proliferation inhibition [%] in a series of non-cytotoxic dilutions of tested samples. This is the concentration at which the proliferation is 50% inhibited.
# [1] = system: ex vivo pig skin model including subcutis fat layer; experiment: Lipolysis assay, ex vivo pig skin model, free glycerol release; type: cell-based; conditions: conc. 0.1% in cosmetic test preparation, topical on ex vivo pig skin, 24 hours, versus placebo
# From the text: Full thickness pig skin patches (pig skin model including subcutis fat layer as described in EP 1 939 279) are excised from the dorsal part of young pig slaughtered for meat. The ex vivo pig skin models have a size of 7×3 mm (diameter×height). They are placed on a titanium grid dipped in culture medium. On top of the skin samples formulations are applied. In parallel to a cosmetic test preparation containing one or more compounds of formula (I) a placebo preparation without any compound of formula (I) is applied as reference (blank).
# After 24 hours of incubation, the quantification of free glycerol in the medium surrounding the pig skin models was performed. The glycerol is released by the cells after hydrolysis of triglycerides in the cells of the adipose tissue and is a measure of the lipolysis of the pig skin models. The quantification of the free glycerol is carried out based on an enzymatic method with a free glycerol reagent.
# Cosmetic Test Preparation:
# Phases A and B are heated to 70° C. separately. Pemulen TR1 as well as Ultrez-21 are dispersed in phase B when heated to 70° C. Phase B/C is added to phase A by mixing with an Ultra Turrax, followed by emulsifying. Phase D is slowly added to phase A/B/C using a paddle mixer and a pH 5.5-6 is adjusted. The formulation is cooled down while mixing with a paddle mixer. Phase E is prepared by dissolving one or more compounds of formula (I) in Hydrolite-5. Subsequently, phase E is added to the mixture of phase A-D.
# The stimulation of the lipolysis in the presence of test substances is calculated according to the following equation:
# [formula] wherein A test substance=absorption of the wells with medium of ex vivo skin models, on which the formulation containing the test substance was applied A placebo=absorption of the wells with medium of ex vivo skin models, on which the placebo without test substance was applied
# lipoprotein lipase (LPL) = molecular target: T1, lipoprotein lipase (LPL) (Mus musculus, UniProt P11152); experiment: Inhibition of LPL (lipogenesis assay), MUF oleate hydrolysis; type: biochemical; conditions: LPL obtained from differentiated 3T3-L1 cells; mean values of at least 2 independent tests
# T1 construct: endogenous in cells; host or cells: differentiated 3T3-L1 cells (mouse); heparin-released supernatant
# T1 sequence (P11152 28-474): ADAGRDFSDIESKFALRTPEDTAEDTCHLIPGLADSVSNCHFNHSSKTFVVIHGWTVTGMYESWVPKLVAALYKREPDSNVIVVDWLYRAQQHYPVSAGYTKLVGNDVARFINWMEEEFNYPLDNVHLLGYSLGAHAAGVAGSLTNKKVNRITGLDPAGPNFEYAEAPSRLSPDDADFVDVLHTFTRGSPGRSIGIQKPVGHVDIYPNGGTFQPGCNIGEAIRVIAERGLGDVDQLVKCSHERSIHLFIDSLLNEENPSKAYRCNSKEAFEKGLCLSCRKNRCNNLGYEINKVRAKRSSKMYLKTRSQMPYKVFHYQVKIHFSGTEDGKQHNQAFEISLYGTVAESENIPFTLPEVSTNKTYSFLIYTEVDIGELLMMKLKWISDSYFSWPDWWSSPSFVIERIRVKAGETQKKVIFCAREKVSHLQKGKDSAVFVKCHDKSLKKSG
# From the text: Lipogenesis is perceived as the storage of triglycerides in adipocytes. The inhibition of this storage can take place by means of the inhibition of the activity of extracellular lipoprotein lipase (LPL) in that the hydrolysis of extracellular triglycerides and therefore the absorption of free fatty acids by adipocytes are reduced. As a preliminary test, the inhibition of pancreatic lipase (PL) is investigated.
# The results of the inhibition of the PL are used as a preliminary test and are confirmed on LPL. To obtain LPL, 3T3-L1 cells (mouse embryonic fibroblast-like adipocyte cell line) are seeded in a 6-well plate with collagen I-coating in a concentration of 3×10^5 cells/well. The cultivation and differentiation of the cells takes place analogously to the details in Example 2 (adipogenesis assay). During the differentiation LPL is increasingly expressed. The LPL is present in a membrane-bound state and is released by one hour incubation with heparin solution at 2-8° C. to the supernatant of the cells.
# The LPL thus obtained, in the presence of test substances in different use concentrations, has methylumbelliferyl oleate (MUF oleate) added as the substrate. Fluorescent methylumbelliferyl (MUF) is produced by hydrolysis of the MUF oleate by LPL and is quantified. The inhibition of the hydrolysis of the MUF oleate is a measure of the inhibition of the activity of the LPL and therefore the lipogenesis.
# [formula] wherein MUF test substance=MUF concentration of the wells with test substance and with LPL MUF control=MUF concentration of the wells without test substance, but with LPL MUF control without LPL=MUF concentration of the wells without test substance and without LPL
# The IC50 is calculated from the inhibition of the LPL [%] in a series of dilutions of tested samples. This is the concentration at which the activity of the LPL and therefore the lipogenesis is 50% inhibited.
SMILES,IC50 (3T3 cells),Stimulation of lipolysis [1],IC50 (lipoprotein lipase (LPL))
"CCCCNC(=O)OC1CCCCC1C(C)C (stereo not drawn) [BIO1841, Butyl-carbamic acid 2-isopropyl-cyclohexyl ester]",255 µM,25%,1200 µM
"CCCCNC(=O)OC1C(C)CCC(C)C1C (stereo not drawn) [BIO1617, Butyl-carbamic acid 2,3,6-trimethyl-cyclohexyl ester]",244 µM,21%,610 µM
"CCC(C)NC(=O)OC1CCCC(C)C1C (stereo not drawn) [BIO1845, sec-Butyl-carbamic acid 2,3-dimethyl-cyclohexyl ester]",345 µM,29%,1440 µM
